According to US12365643B2, “Phenoxy carboxylic acid compounds and medical uses thereof” (QINGDAO RISING BIOTECHNOLOGY CO., LTD, priority 2018, dated 2025):

Columns and labels:
[1] = system: NF-κB; experiment: NF-κB luciferase reporter gene transcriptional activity in SW480 cells; assay type: cell-based, human; details: 50 μM, 6 hours, SW480 stably transfected (FIG. 3)
Description: NF-κB was the most important inflammatory signal pathway. SW480 human colon cancer cells stably transfected with a luciferase reporter gene driven by NF-κB were used to determine the effects of the compound of the present application and the control drug gemfibrozil on NF-κB transcriptional activity, which comprised the following steps. • (1) Cells stably transfected with NF-κB Luc were cultivated to exponential growth, inoculated at a culture medium concentration of 1×10^5/[…] in a 24-well plate, and cultured for 24 hours, the medium was discarded, and the test compound or gemfibrozil formulated with serum-free medium at 50 μM were added to the 24-well plate and incubation was continued for 6 hours. After washing once with 200 μL of PBS, 100 μL of reporter gene cell lysis buffer was added, the cells were lysed on ice for 10 minutes, and the cell lysate was collected by pipetting. • (2) After centrifugation was performed at 8000 rpm and 4° C. for 10 min, the supernatant was pipetted for fluorescence assay. • (3) The measurement gap time of chemiluminescence analyzer was set to 2 s and the measurement time was set to 10 s. Automatic sample injection was adopted, 50 μL of luciferase assay reagent was added to each well. The reporter gene cell lysis buffer was used as a blank control. • (4) After centrifugation, the supernatant was taken, and the BCA method was used to determine the protein concentration so as to normalize the reporter gene results.

[2] = system: PGC1α; experiment: PGC1α mRNA expression by real-time quantitative PCR in HepG2; assay type: cell-based, human; details: 1 μM, 6 hours, HepG2 (FIG. 5C)
Source text: (§1) Peroxisome proliferation factor activated receptor (PPAR) is an important nuclear receptor that regulates glycolipid metabolism, including three subtypes: α, β/δ and γ. Peroxisome proliferator-activated receptor γ coactivator 1α (PGC-1α) is its auxiliary transcriptional activator. Acyl-CoA oxidase 1 (ACOX1) is the first rate-limiting enzyme for fatty acid β oxidation. Fatty acid binding protein 1 (FABP1) is highly expressed in liver, and can bind fatty acid, heme and other molecules to reduce their toxicity and damage. Up-regulating the expression level of these genes helps to improve the body's metabolism, and their agonists are an important class of anti-metabolic drugs. After the compound of the present application (1 μM) and the control drug gemfibrozil (1 μM) were incubated with human liver cancer cells HepG2 for 6 hours, real-time fluorescent quantitative PCR method was used to determine the relative expression of mRNA of related genes in the cells.
(§2) The company which synthesized the primers was Suzhou Hongxun Biotechnology Co., Ltd. Tranzol reagent (Tranzol total RNA extraction reagent, TransGen Biotech) was used to extract total RNA from tissues. 5× All-In-One RT MasterMix reverse transcription kit (Abcam, USA) and real-time quantitative PCR Master Mix (Aidlab Biotechnologies Co., Ltd) were used. Bio-Rad CFX Connect™ Real-Time PCR Detection System for qPCR was used, and 2^−ΔΔCT method was used for data analysis. The expression level of mRNA in the normal control group was set to 1, and the relative expression level of mRNA in the administration group was calculated, so as to confirm whether the active compound affected the PPAR pathway, thereby further regulating lipid metabolism.

[3] = system: ACOX1; experiment: ACOX1 mRNA expression by real-time quantitative PCR in HepG2; assay type: cell-based, human; details: 1 μM, 6 hours, HepG2 (FIG. 5D)
Source text: as §1, §2

[4] = system: diabetes mellitus+NASH model mice; experiment: Diabetes mellitus + non-alcoholic steatohepatitis (NASH) model; assay type: in vivo, mouse; details: for AHDL (high density lipoprotein) / ALDL (low density lipoprotein) / ALT / AST / BUN / CHOL (total cholesterol) / CK / CREA / TGL (triglycerides) / activity of lowering triglycerides (in words) / total cholesterol content in blood (in words): 50 mg/kg intragastric once a day for 28 days; for blood glucose level: 50 mg/kg intragastric once a day for 28 days (FIG. 9); for body fat content (MRI): 50 mg/kg intragastric once a day for 28 days (FIG. 10); for fat content in liver (Oil red O and H.E. staining): 50 mg/kg intragastric once a day for 28 days (FIGS. 12A-12B); for blood glucose level 14 days after the administration: 50 mg/kg intragastric once a day, day 14; for weight ratio of epididymal white fat: 50 mg/kg intragastric once a day for 28 days (FIG. 11)
Description: Animal model: Each db/db mouse was injected subcutaneously with 40% CCl4 solution (Beijing Tongguang Fine Chemical Co., Ltd.) at a dose of 0.72 mg/100 g for 4 consecutive weeks to obtain a diabetes mellitus+NASH model. In the experiment, 35 of the above model mice were used, and animals with blood glucose of about 7 to 13 mmol/L were selected. According to their blood glucose levels, they were randomly divided into a blank control group, a model group, a BJMU group (gemfibrozil), a BJMU-1 group, a BJMU-2 Group and a BJMU-3 group, 7 animals in each group (the model group and each administration group were modeled according to the animal modeling method). Intragastric administration was adopted with an administration volume of 10 ml/kg. The blank control group and the model group were administrated with 1% Tween 80-saline; the BJMU group was administrated with a dose of 50 mg/kg, the BJMU-1 group was administrated with a dose of 50 mg/kg, the BJMU-2 group was administrated with a dose of 50 mg/kg, and the BJMU-3 group was administrated with a dose of 50 mg/kg. The administration was performed once a day for 28 consecutive days. From the day of oral administration, the physiological changes of the animals were observed every day. Blood glucose was measured every week, and blood glucose difference (Δ) was calculated by the following formula: blood glucose difference (Δ)=the blood glucose of the day—the initial blood glucose (the initial blood glucose difference was zero). After the administration, the animals were sacrificed, and the internal organs and epididymal fat were taken out for experiments. White epididymal fat was taken from each group of mice and weighed. According to the corresponding body weight, the weight ratio of white fat was calculated. Before the mice were sacrificed, 3 mice in each group were randomly selected and subjected to magnetic resonance imaging (MRI) (EchoMRI-700 body fat tester) so as to measure body fat content. For mice in each experimental group, blood was collected and serum was separated, and liver was taken for wet-weight measurement after necropsy; liver tissue was taken and fixed for pathological examination, H.E. staining and oil red O staining (Wuhan Zishan Biotechnology Co., Ltd.) were performed, and mouse liver lesions were observed under light microscope; routine examination of blood was performed by Animal Laboratory Department, Health Science Center of Peking University to measure the following indexes: white blood cell count (WBC), red blood cell count (RBC), lymphocyte count (LY), platelet (PLT) and so on; biochemical laboratory examination of blood was performed by Laboratory Medicine, Third Hospital, Peking University to measure the following indexes: triglycerides (TG), total cholesterol (T-CHO), high-density lipoprotein cholesterol (HDL-C), low-density lipoprotein cholesterol (LDL-C) and so on.

BUN [4] | CK [4] | CREA [4] | SMILES | activity of NF-κB reporter gene [1] | PGC1α mRNA expression [2] | ACOX1 mRNA expression [3] | AHDL (high density lipoprotein) [4] | ALDL (low density lipoprotein) [4] | ALT [4] | AST [4] | CHOL (total cholesterol) [4] | TGL (triglycerides) [4] | activity of lowering triglycerides (in words) [4] | blood glucose level [4] | body fat content (MRI) [4] | fat content in liver (Oil red O and H.E. staining) [4] | blood glucose level 14 days after the administration [4] | total cholesterol content in blood (in words) [4] | weight ratio of epididymal white fat [4]
9.89 ± 1.31 mmol/L | 1297.71 ± 814.48 U/L | 19 ± 1.63 µmol/L | Cc1cc(OCCCC(C)(C)C(=O)O)c(C)cc1Cl [BJMU-1, 5-(4-chloro-2,5-dimethylphenoxy)-2,2-dimethylpentanoic acid] | could significantly inhibit the activity of NF-κB reporter gene | significantly induced PGC1α mRNA expression | significantly induced ACOX1 mRNA expression | 2.34 ± 0.24 mmol/L | 0.49 ± 0.06 mmol/L | 114.86 ± 51.2 U/L | 216.43 ± 60.6 U/L | 4.85 ± 0.7 mmol/L | 1.77 ± 0.65 mmol/L | had better activity of lowering triglycerides than gemfibrozil | could significantly reduce the blood glucose level | could significantly reduce the body fat content | could significantly reduce the fat content in liver | almost returned to the normal level |  | 
11.95 ± 1.81 mmol/L | 1406.33 ± 458.77 U/L | 22.5 ± 7.12 µmol/L | Cc1cc(OCCCC(C)(C)C(=O)O)c(C)cc1Br [BJMU-2, 5-(4-bromo-2,5-dimethylphenoxy)-2,2-dimethylpentanoic acid] | could significantly inhibit the activity of NF-κB reporter gene | significantly induced PGC1α mRNA expression | significantly induced ACOX1 mRNA expression | 2.15 ± 0.29 mmol/L | 0.48 ± 0.05 mmol/L | 115.57 ± 39.12 U/L | 233.67 ± 47.75 U/L | 3.78 ± 0.45 mmol/L | 1.73 ± 0.41 mmol/L | had better activity of lowering triglycerides than gemfibrozil | could significantly reduce the blood glucose level | could significantly reduce the body fat content | could significantly reduce the fat content in liver | almost returned to the normal level | could reduce total cholesterol content in blood | could significantly reduce the weight ratio of mouse epididymal fat
9.29 ± 3.44 mmol/L | 1674.71 ± 864.05 U/L | 21.33 ± 10.52 µmol/L | Cc1cc(OCCCC(C)(C)C(=O)O)c(C)cc1F [BJMU-3, 5-(4-fluoro-2,5-dimethylphenoxy)-2,2-dimethylpentanoic acid] |  | significantly induced PGC1α mRNA expression | significantly induced ACOX1 mRNA expression | 2.27 ± 0.84 mmol/L | 0.52 ± 0.14 mmol/L | 125.14 ± 51.99 U/L | 257 ± 83 U/L | 4.42 ± 1.77 mmol/L | 1.86 ± 0.99 mmol/L | had better activity of lowering triglycerides than gemfibrozil | could significantly reduce the blood glucose level | could significantly reduce the body fat content | could significantly reduce the fat content in liver | almost returned to the normal level |  | could significantly reduce the weight ratio of mouse epididymal fat
11.96 ± 2.26 mmol/L | 1222.14 ± 392.96 U/L | 22.29 ± 3.45 µmol/L | Cc1ccc(C)c(OCCCC(C)(C)C(=O)O)c1 [gemfibrozil, Gemfibrozil, reference compound] | could not inhibit the activity of NF-κB reporter gene | could not activate PGC1α expression | could not activate ACOX1 expression | 2.68 ± 0.31 mmol/L | 0.7 ± 0.16 mmol/L | 134.14 ± 38.71 U/L | 235.14 ± 41.06 U/L | 5.37 ± 0.88 mmol/L | 1.86 ± 0.66 mmol/L |  | did not exhibit significant hypoglycemic activity | did not show an activity of reducing body fat | did not exhibit the aforementioned activity |  | did not show an activity of lowering total cholesterol in blood | 
